According to paper PMC12040169 (PLOS Biology, 2025):

Assay: in vitro
Details: human, hela cells, % viability

Compound	viability at 28.5 h, 10 µM [%]
O=C(Cc1c[nH]cn1)N1CCCC2(CCN(C(=O)c3cc(F)c(F)cc3F)C2)C1 (centres unmarked) [CBK137072]	95.6
COc1ccc(C(=O)N2CCC3(CCCN(C(=O)CC4NC(=O)NC4=O)C3)C2)cc1OC (centres unmarked) [CBK137082]	93.7
COc1ccc(C(=O)N2CCC3(CCCN(C(=O)Cn4cc(C)c(=O)[nH]c4=O)C3)C2)cc1OC (centres unmarked) [CBK137085]	107
COc1ccc(C(=O)N2CCC3(CCCN(C(=O)CN4C(=O)CSC4=O)C3)C2)cc1OC (centres unmarked) [CBK137088]	115
Cc1cc(C(=O)N2CCC3(CCN(Cc4ccccc4)C3)C2)n[nH]1 (centres unmarked) [CBK137092T]	93.4
CCOC(=O)C1(C2CCCCC2)CCN(C(=O)c2cc[nH]c2)CC1 [CBK137103]	92.1
CCOC(=O)C1(C2CCCCC2)CCN(C(=O)c2cccnc2)CC1 [CBK137104T]	95.4
COc1ccc(C(=O)N2CCC3(CCN(CCN4CCCCC4)C3)C2)cc1OC (centres unmarked) [CBK137113T]	103
O=C(O)CCN1CCC2(CCN(C(=O)c3cc(F)c(F)cc3F)C2)C1 (centres unmarked) [CBK137123]	86.8
O=c1[nH]c2ccccc2n1CCCN1CCC2(CC1)CN(CCO)c1ccccc12 [CBK137133]	97.4
O=C(O)CCN1CCCC2(CCN(C(=O)c3ccoc3)C2)C1 (centres unmarked) [CBK137139]	93.4
O=C(CN1CCCC2(CCN(C(=O)c3ccoc3)C2)C1)Nc1ncccn1 (centres unmarked) [CBK137140]	102
O=C(Cc1c[nH]cn1)N1CCC2(CCN(Cc3ccccc3)C2)C1 (centres unmarked) [CBK137147]	91
O=C(c1ccc2[nH]c(=O)[nH]c2c1)N1CCCC2(CCN(Cc3ccccc3)C2)C1 (centres unmarked) [CBK137149]	91.7
CCN(CCC(C)Sc1ccccc1)c1cncc(Oc2ccc(S(C)(=O)=O)cc2)n1 (centres unmarked) [CBK137186T]	96.5
CC1(C(C)(O)C(F)F)OC(NC2C3CC4CC(C3)CC2C4)=NC1=O (centres unmarked) [CBK137190]	103
O=S(=O)(c1ccccc1)N1CC2(CCNCC2)c2ccccc21 [CBK137413]	84.2
CC(=O)N1CCC(O)(C2(C)OC(NC3C4CC5CC(C4)CC3C5)=NC2=O)CC1 (centres unmarked) [CBK138181]	91.8
Cc1cc(C)nc(NC(=O)OCc2cc(C)nc(C)c2)c1 [CBK138231]	87.9
Cc1cc(C)nc(NC(=O)OCCc2ccncc2)c1 [CBK138233]	93.9
Cc1cc(COC(=O)Nc2cccnc2)cc(C)n1 [CBK138236]	83.6
NC(=O)CN1CCC(Cc2ccccc2)CC1 [CBK138319]	109
NC(=O)CCN1CCc2ccccc2C1 [CBK138325]	88.3

Compound	viability at 28.5 h, 10 µM [%]
O=C(CN1CCCc2ccccc21)c1ccsc1 [CBK138333]	91.5
COc1ccc(Cl)cc1N1CCN(CCCn2c(=O)[nH]c3ccccc32)CC1 [CBK138338]	95.7
COc1ccc(Cl)cc1N1CCN(CCO)CC1 [CBK138339]	88.7
CC(C)(C)OC(=O)N1CCCN(c2ccc(S(=O)(=O)c3ccccc3)c([N+](=O)[O-])c2)CC1 [CBK138502]	99.2
O=C(c1ccc(-c2cncc(-c3ccc(Cl)s3)n2)cc1)N1CCOCC1 [CBK138517]	92.2
CC(C)(C)OC(=O)n1cccc1-c1cncc(-c2ccc(C(=O)N3CCOCC3)cc2)n1 [CBK138520]	100
O=C(Nc1cccc2ccccc12)C1CCCN1S(=O)(=O)c1ccc(F)cc1 (centres unmarked) [CBK138924]	97.8
O=C(Nc1cccc2ccccc12)C1CCCN1S(=O)(=O)c1ccc(Cl)cc1 (centres unmarked) [CBK138930]	92.9
COCCn1c(SCCC(=O)O)nc2c1c(=O)[nH]c(=O)n2C [CBK139751]	82
Cc1ccc(CNc2nc3c(c(=O)[nH]c(=O)n3C)n2CC(O)COC(C)C)cc1 (centres unmarked) [CBK139849]	87.3
COCCSc1nc2c(c(=O)[nH]c(=O)n2C)n1CCCc1ccccc1 [CBK140504]	90.9
CN(C)c1nc2c(c(=O)[nH]c(=O)n2C)n1Cc1cccc2ccccc12 [CBK140560]	90.1
CN(C)Cc1nc2c([nH]1)c(=O)n(C)c(=O)n2C [CBK140662]	99.8
CC(C)OCC(O)Cn1c(NC2CCCCC2)nc2c1c(=O)[nH]c(=O)n2C (centres unmarked) [CBK140893]	107
COc1ccc(OC)c(-n2c(C)cn3c4c(=O)[nH]c(=O)n(C)c4nc23)c1 [CBK141314]	59.5
COc1cccc(C(c2nnnn2C(C)(C)C)N2CCN(c3cccc(Cl)c3)CC2)c1 (centres unmarked) [CBK141669]	112
COc1ccccc1OCCSc1nnnn1C1CCCCC1 [CBK141884]	96.6
COc1cc(C(c2nnnn2C2CCCCC2)N2CCN(C)CC2)cc(OC)c1OC (centres unmarked) [CBK142338C]	98.3
CC(C)(C)OC(=O)N1CCN(S(=O)(=O)c2ccc(Br)cc2)CC1 [CBK143623]	91.8
O=S(=O)(c1ccccc1)n1c(CO)cc2c(C(F)(F)F)cc(CN3CCNCC3)cc21 [CBK143799]	97.7
O=C(NC1CCCC1)c1ccncc1 [CBK143916]	117
CCNC(=O)N1CC2(CCN(CC3COc4ccccc4O3)CC2)c2ccccc21 (centres unmarked) [CBK143944]	102
CCNC(=O)N1CC2(CCN(CCn3cccc3)CC2)c2ccccc21 [CBK143945]	93

Compound	viability at 28.5 h, 10 µM [%]
O=C(CO)N1CC2(CCN(CCn3cccc3)CC2)c2ccccc21 [CBK143953]	86.9
OCCN1CC2(CCN(CC3CCCO3)CC2)c2ccccc21 (centres unmarked) [CBK143959]	90.8
O=C1NC(=O)C(CCCCN2CCCc3ccccc32)N1 (centres unmarked) [CBK143965]	98.3
CCCCN1CCN(S(=O)(=O)c2ccc(Br)cc2)CC1 [CBK144055]	99.1
CS(=O)(=O)c1ccc(CN2C(=O)CC3(CCN(Cc4ccccc4)CC3)C2=O)cc1 [CBK144065T]	108
Cc1onc(-c2ccccc2)c1CNC(=O)c1ccc(OC(F)(F)F)cc1 [CBK144080]	97.9
Cc1onc(-c2ccccc2)c1CNC(=O)/C=C/c1ccc2c(c1)OCO2 [CBK144085]	95
Cc1onc(-c2ccccc2)c1CNC(=O)c1cscn1 [CBK144089]	97.1
Cc1onc(-c2ccccc2)c1CNC(=O)c1cccnc1 [CBK144100]	111
CN1CCC[C@H]1C(=O)Nc1nc2c(s1)C(=O)CC(C)(C)C2 [CBK144101]	98.8
CC1(C)CC(=O)c2sc(NC(=O)c3ccc(OC(F)(F)F)cc3)nc2C1 [CBK144102]	109
CC1(C)CC(=O)c2sc(NC(=O)Cc3ccc(Cl)c(Cl)c3)nc2C1 [CBK144103]	93.7
CC1(C)CC(=O)c2sc(NC(=O)c3ccc4ncccc4c3)nc2C1 [CBK144105]	92.2
CC1CCN(Cc2ccc(-c3nnn(CC(=O)NCc4ccc(S(N)(=O)=O)cc4)n3)cc2)CC1 [CBK144141C]	93.3
COc1cccc(CNC(=O)Cn2nnc(-c3ccc(CN4CCC(C)CC4)cc3)n2)c1OC [CBK144161C]	94.1
COc1cc(CNC(=O)Cn2nnc(-c3ccc(CN4CCC(C)CC4)cc3)n2)cc(OC)c1OC [CBK144170C]	96.5
CC1CCN(Cc2ccc(-c3nnn(CC(=O)NCc4ccc(Cl)cc4Cl)n3)cc2)CC1 [CBK144180C]	96.5
O=C(c1ccco1)N1CCN(C(=O)C(c2ccccc2)c2ccccc2)CC1 [CBK144462]	88.9
COc1ccccc1OCC(=O)N1CCN(C(=O)c2ccco2)CC1 [CBK144466]	86.8
O=C(c1cc[nH]c1)N1CCN(C(=O)c2ccco2)CC1 [CBK144467]	90
Cc1ccc(S(=O)(=O)CC(=O)N2CCN(C(=O)c3ccco3)CC2)cc1 [CBK144469]	87.1
COc1cc(C(=O)N2CCN(C(=O)c3ccco3)CC2)cc(OC)c1OC [CBK144476]	113
O=C(c1cncnc1)N1CCN(C(=O)c2ccco2)CC1 [CBK144477]	104

Compound	viability at 28.5 h, 10 µM [%]
O=C(CN1CCOCC1)N1CCN(C(=O)c2ccco2)CC1 [CBK144478]	99.2
O=C(c1ccco1)N1CCN(C(=O)c2c(F)cccc2F)CC1 [CBK144479]	86.3
O=C(c1ccc2c(c1)OCCO2)N1CCN(C(=O)c2ccco2)CC1 [CBK144480]	101
O=C(COc1cccnc1)N1CCN(C(=O)c2ccco2)CC1 [CBK144482]	96.7
N#Cc1cccc(C(=O)N2CCN(c3ncccn3)CC2)c1 [CBK144498]	82.2
O=C(COc1ccc(F)cc1)N1CCN(c2ncccn2)CC1 [CBK144499]	94.1
O=C(c1ccc2ncccc2c1)N1CCN(c2ncccn2)CC1 [CBK144503]	87.9
O=C(C(c1ccccc1)c1ccccc1)N1CCN(c2ncccn2)CC1 [CBK144504]	89.4
O=C(c1cscn1)N1CCN(c2ncccn2)CC1 [CBK144506]	87.9
CSCCC(=O)N1CCN(c2ncccn2)CC1 [CBK144509]	90.3
CN1CCC(C(=O)N2CCN(c3ncccn3)CC2)CC1 [CBK144511]	102
O=C(c1cncnc1)N1CCN(c2ncccn2)CC1 [CBK144515]	88
O=C(c1cccnc1)N1CCN(c2ncccn2)CC1 [CBK144516]	95.4
O=C(c1c(F)cccc1F)N1CCN(c2ncccn2)CC1 [CBK144517]	89.3
O=C(c1ccc2c(c1)OCCO2)N1CCN(c2ncccn2)CC1 [CBK144519]	89.5
O=C(COc1cccnc1)N1CCN(c2ncccn2)CC1 [CBK144521]	86.5
O=C(Cc1c[nH]cn1)N1CCN(c2ncccn2)CC1 [CBK144527]	105
CN1CCC[C@H]1C(=O)N1CCN(c2ncccn2)CC1 [CBK144528]	93.4
O=C(CC1CCCCC1)N1CCN(c2ncccn2)CC1 [CBK144529]	102
CC(C)(N)CC(=O)N1CCN(c2ncccn2)CC1 [CBK144532]	91.3
